Assays:
large milkweed bug [1] = assay: Initial insecticidal activity, milkweed bug; format: in vivo, Oncopeltus fasciatus (Dallas); conditions: Oncopeltus fasciatus, 48-hour exposure, read-out: % Kill, Milkweed Bug
From the text: (§1) a. Initial Insecticidal Activity
(§2) In this test, a candidate insecticide, in solution, is applied to either infested or uninfested plants or containers by spraying or dipping. (The preferred test procedure varies with insect species. The dipping method is better than the spraying method, and vice versa, for certain species of insects. Also some species are better adapted to the test by infesting after the chemical treatment rather than before.) Once the tests have been established, a 48-hour exposure period is observed before reading the tests. Insect species included in these tests are Mexican bean beetle (Epilachna varivestis Mulsant), pea aphid [Acyrthosiphon pisum (Harris)], southern armyworm [Spodoptera eridania (Cramer)], twospotted spider mite (Tetranychus urticae Koch), large milkweed bug [Oncopeltus fasciatus (Dallas)], plum curculio [Conotrachelus nenuphar (Herbst)], confused flour beetle (Tribolium confusum Jacquelin duVal) and granary weevil [Sitophilus granarius (Linnaeus)]. Test results are set forth in Table I. A control sample, comprising the solution without the candidate insecticide, is also included.

plum curculio [2] = assay: Initial insecticidal activity, plum curculio; format: in vivo, Conotrachelus nenuphar (Herbst); conditions: Conotrachelus nenuphar, 48-hour exposure, read-out: % Kill, Plum Curculio
From the text: as §1, §2

Mexican bean beetle [3] = assay: Initial insecticidal activity, Mexican bean beetle; format: in vivo, Epilachna varivestis Mulsant; conditions: Epilachna varivestis, 48-hour exposure, read-out: % Kill, Mexican Bean Beetle
From the text: as §1, §2

pea aphid [4] = assay: Initial insecticidal activity, pea aphid; format: in vivo, Acyrthosiphon pisum (Harris); conditions: Acyrthosiphon pisum, 48-hour exposure, read-out: % Kill, Pea Aphid
From the text: as §1, §2

southern armyworm = assay: Initial insecticidal activity, southern armyworm; format: in vivo, Spodoptera eridania (Cramer); conditions: Spodoptera eridania, 48-hour exposure, read-out: % Kill, Southern Armyworm
From the text: as §1, §2

twospotted spider mite [5] = assay: Initial insecticidal activity, twospotted spider mite; format: in vivo, Tetranychus urticae Koch; conditions: Tetranychus urticae, 48-hour exposure, read-out: % Kill, Twospotted Spider Mite
From the text: as §1, §2

large milkweed bug [6] = assay: Seven-day residual insecticidal activity, milkweed bug; format: in vivo, Oncopeltus fasciatus (Dallas); conditions: Oncopeltus fasciatus, 48-hour exposure, read-out: % Kill, Milkweed Bug
From the text: (§3) b. Seven-Day Residual Insecticidal Activity
(§4) In this test, a candidate insecticide, in solution, is applied to uninfested plants or containers by dipping or spraying. A seven-day holding period is necessary before infestation. A 48-hour exposure period is observed before evaluation of the tests. The insect species used in this type of test are the same as those listed under initial activity.

plum curculio [7] = assay: Seven-day residual insecticidal activity, plum curculio; format: in vivo, Conotrachelus nenuphar (Herbst); conditions: Conotrachelus nenuphar, 48-hour exposure, read-out: % Kill, Plum Curculio
From the text: as §3, §4

confused flour beetle = assay: Seven-day residual insecticidal activity, confused flour beetle; format: in vivo, Tribolium confusum Jacquelin duVal; conditions: Tribolium confusum, 48-hour exposure, read-out: % Kill, Confused Flour Beetle
From the text: as §3, §4

Mexican bean beetle [8] = assay: Seven-day residual insecticidal activity, Mexican bean beetle; format: in vivo, Epilachna varivestis Mulsant; conditions: Epilachna varivestis, 48-hour exposure, read-out: % Kill, Mexican Bean Beetle
From the text: as §3, §4

pea aphid [9] = assay: Seven-day residual insecticidal activity, pea aphid; format: in vivo, Acyrthosiphon pisum (Harris); conditions: Acyrthosiphon pisum, 48-hour exposure, read-out: % Kill, Pea Aphid
From the text: as §3, §4

Mexican bean beetle [10] = assay: Systemic insecticidal activity (soil/water), Mexican bean beetle; format: in vivo, Epilachna varivestis Mulsant; conditions: Epilachna varivestis, 48-hour exposure, read-out: % Kill, Mexican Bean Beetle
Method: (§5) c. Systemic Insecticidal Acitivity (Soil/Water)
(§6) In this test, a candidate insecticide, in solution, is added to the soil of either uninfested pinto bean seedlings (Phaseolus vulgaris) or uninfested broad bean seedlings (Vicia faba var. Windsor). The plant species used depend on the insect species in the test. Usually, a 72-hour translocation period before infestation is required, followed by a 48-hour exposure period, before evaluation of the tests. The insect species used in the systemic tests are Mexican bean beetle, southern armyworm, pea aphid, and twospotted spider mite.

pea aphid [11] = assay: Systemic insecticidal activity (soil/water), pea aphid; format: in vivo, Acyrthosiphon pisum (Harris); conditions: Acyrthosiphon pisum, 48-hour exposure, read-out: % Kill, Pea Aphid
Method: as §5, §6

twospotted spider mite [12] = assay: Systemic insecticidal activity (soil/water), twospotted spider mite; format: in vivo, Tetranychus urticae Koch; conditions: Tetranychus urticae, 48-hour exposure, read-out: % Kill, Twospotted Spider Mite
Method: as §5, §6

German cockroaches [13] = assay: Level I immersion test, German cockroaches; format: in vivo, Blattella germanica (Linnaeus); conditions: GC (male), 5 mg/milliliter; for mortality at 5000 µg/mL: Blattella germanica, 18-24 hours, read-out: % Kill; for % Knockdown: 30 minutes after immersion
Method: (§7) e. Insecticidal Activity Against House Flies and German Cockroaches
Compounds of this invention were tested in a Level I test at 5 mg. of active compounds/milliliter of a solution of 40% acetone -- 60% water.
In this test a group of ten house flies (Musca domestica Linnaeus) were completely immersed in 25 ml. of the insecticidal test solution. After 10 seconds of immersion, the test solution is removed. The house flies are then transferred to holding cages lines with paper toweling. In the case of the house flies, the knockdown counts were recorded 10 minutes after termination of the immersion. The percent kill was recorded after 18-24 hours.
The same Level I test technique was employed using male German cockroaches [Blattella germanica (Linnaeus)]. In this case, the knockdown counts were recorded 30 minutes after the termination of the immersion.

German cockroaches [14] = assay: Level II topical test, German cockroaches; format: in vivo, Blattella germanica (Linnaeus); conditions: GC (male), one microgram topically per insect
Method: as §7
In a Level II test the compounds of this invention were tested for insecticidal activity against female house flies (resistant) and male German cockroaches. Ten insects were anesthetized with carbon dioxide and placed in a container for about 2 hours, during which time the insects recovered to normal activity. The container confining the insects is fitted with a plunger which is used to force the insects against a nylon mesh at one end of the container. One microliter of an acetone solution containing one microgram of the candidate insecticide was applied topically to each insect. The plunger was withdrawn and the insects were allowed to move freely about the container. Knockdown counts were recorded 10 minutes after treatment of house flies and 30 minutes after treatment of cockroaches.

CCCOP(=O)(OCCC)N(CCC)SN(C)C(=O)Oc1cccc2c1OC(C)(C)C2 [3(c)]
mortality at 39 ppm (large milkweed bug [1]): 85% | mortality at 156 ppm (large milkweed bug [1]): 100% | mortality at 1250 ppm (large milkweed bug [1]): 100% | mortality at 39 ppm (plum curculio [2]): 5% | mortality at 156 ppm (plum curculio [2]): 5% | mortality at 1250 ppm (plum curculio [2]): 77% | mortality at 39 ppm (Mexican bean beetle [3]): 100% | mortality at 156 ppm (Mexican bean beetle [3]): 100% | mortality at 1250 ppm (Mexican bean beetle [3]): 100% | mortality at 39 ppm (pea aphid [4]): 31% | mortality at 156 ppm (pea aphid [4]): 100% | mortality at 1250 ppm (pea aphid [4]): 100% | mortality at 39 ppm (southern armyworm): 0% | mortality at 156 ppm (southern armyworm): 22% | mortality at 1250 ppm (southern armyworm): 100% | mortality at 39 ppm (twospotted spider mite [5]): 32% | mortality at 156 ppm (twospotted spider mite [5]): 86% | mortality at 1250 ppm (twospotted spider mite [5]): 100% | mortality at 39 ppm (large milkweed bug [6]): 5% | mortality at 156 ppm (large milkweed bug [6]): 90% | mortality at 1250 ppm (large milkweed bug [6]): 100% | mortality at 39 ppm (plum curculio [7]): 5% | mortality at 156 ppm (plum curculio [7]): 10% | mortality at 1250 ppm (plum curculio [7]): 95% | mortality at 39 ppm (confused flour beetle): 0% | mortality at 156 ppm (confused flour beetle): 0% | mortality at 1250 ppm (confused flour beetle): 78% | mortality at 39 ppm (Mexican bean beetle [8]): 28% | mortality at 156 ppm (Mexican bean beetle [8]): 92% | mortality at 1250 ppm (Mexican bean beetle [8]): 100% | mortality at 39 ppm (pea aphid [9]): 0% | mortality at 156 ppm (pea aphid [9]): 0% | mortality at 1250 ppm (pea aphid [9]): 73% | mortality at 10 ppm (Mexican bean beetle [10]; 10 ppm): 44% | mortality at 39 ppm (Mexican bean beetle [10]): 44% | mortality at 156 ppm (Mexican bean beetle [10]): 94% | mortality at 10 ppm (pea aphid [11]; 10 ppm): 0% | mortality at 39 ppm (pea aphid [11]): 0% | mortality at 156 ppm (pea aphid [11]): 79% | mortality at 10 ppm (twospotted spider mite [12]; 10 ppm): < 1% | mortality at 39 ppm (twospotted spider mite [12]): < 1% | mortality at 156 ppm (twospotted spider mite [12]): 5% | mortality at 5000 µg/mL (German cockroaches [13]): 100% | % Knockdown (German cockroaches [13]): 100% | mortality at 0.001 mg (German cockroaches [14]; Blattella germanica, topical, read-out: % Kill): 0% | % Knockdown (German cockroaches [14]; 30 minutes): 0%

CCCN(SN(C)C(=O)Oc1cccc2c1OC(C)(C)C2)P(=O)(Oc1ccccc1)Oc1ccccc1 [7(c)]
mortality at 39 ppm (large milkweed bug [1]): 5% | mortality at 156 ppm (large milkweed bug [1]): 70% | mortality at 1250 ppm (large milkweed bug [1]): 95% | mortality at 39 ppm (plum curculio [2]): 20% | mortality at 156 ppm (plum curculio [2]): 50% | mortality at 1250 ppm (plum curculio [2]): 65% | mortality at 39 ppm (Mexican bean beetle [3]): 95% | mortality at 156 ppm (Mexican bean beetle [3]): 94% | mortality at 1250 ppm (Mexican bean beetle [3]): 100% | mortality at 39 ppm (pea aphid [4]): 11% | mortality at 156 ppm (pea aphid [4]): 0% | mortality at 1250 ppm (pea aphid [4]): 0% | mortality at 39 ppm (southern armyworm): 0% | mortality at 156 ppm (southern armyworm): 29% | mortality at 1250 ppm (southern armyworm): 31% | mortality at 39 ppm (twospotted spider mite [5]): 1% | mortality at 156 ppm (twospotted spider mite [5]): 6% | mortality at 1250 ppm (twospotted spider mite [5]): 5% | mortality at 39 ppm (large milkweed bug [6]): 26% | mortality at 156 ppm (large milkweed bug [6]): 21% | mortality at 1250 ppm (large milkweed bug [6]): 60% | mortality at 39 ppm (plum curculio [7]): 5% | mortality at 156 ppm (plum curculio [7]): 0% | mortality at 1250 ppm (plum curculio [7]): 0% | mortality at 39 ppm (confused flour beetle): 0% | mortality at 156 ppm (confused flour beetle): 0% | mortality at 1250 ppm (confused flour beetle): 0% | mortality at 39 ppm (Mexican bean beetle [8]): 20% | mortality at 156 ppm (Mexican bean beetle [8]): 89% | mortality at 1250 ppm (Mexican bean beetle [8]): 100% | mortality at 39 ppm (pea aphid [9]): 0% | mortality at 156 ppm (pea aphid [9]): 0% | mortality at 1250 ppm (pea aphid [9]): 0% | mortality at 39 ppm (Mexican bean beetle [10]): 45% | mortality at 156 ppm (Mexican bean beetle [10]): 100% | mortality at 39 ppm (pea aphid [11]): 0% | mortality at 156 ppm (pea aphid [11]): 0% | mortality at 39 ppm (twospotted spider mite [12]): 4% | mortality at 156 ppm (twospotted spider mite [12]): 1% | mortality at 5000 µg/mL (German cockroaches [13]): 0% | % Knockdown (German cockroaches [13]): 0%
